# Data published in patent US20260224524A1, “A PHARMACEUTICAL COMPOSITION TARGETING MUTANT P53 AND HER2” (DR DOZO LABORATORIES, priority 2023, published 2026).
# Legend:
# Type in all cases: cell-based
# [1] = test system: Human Breast Cancer Cell Line MDA-MB-231; assay: Growth inhibition (% control growth, LC50, TGI, GI50) MDA-MB-231
# Experimental: The therapeutic effect of […] (peak 5) and SA2 (peak 4) is evaluated against human […] cancer cell line MDA-MB-231 by calculating the percentage growth inhibition, drug concentration of test compound needed to inhibit cell growth by 50% (GI50) values.
# The therapeutic effect of SACC is evaluated against human […] cancer cell lines MDA-MB-231 by calculating the percentage growth inhibition, drug concentration of test compound needed to inhibit cell growth by 50% (GI50) values.
# [2] = test system: Human Breast Cancer Cell Line MDA-MB-231; assay: as above; settings: Molar drug concentrations calculated from graph
# [3] = test system: Human Pancreatic Cancer Cell Line Mia-Pa-Ca-2; assay: Growth inhibition (% control growth, LC50, TGI, GI50) Mia-Pa-Ca-2; settings: Mia-Pa-Ca-2; for GI50: Homo sapiens, MIA PaCa-2; for GI50 / TGI: Molar drug concentrations calculated from graph
# Experimental: The therapeutic effect of SA1 (peak 5) and SA2 (peak 4) is evaluated against human pancreatic cancer cell line Mia-Pa-Ca-2 by calculating the percentage growth inhibition, drug concentration of test compound needed to inhibit cell growth by 50% (GI50) values.
# The therapeutic effect of SACC is evaluated against human […] cancer cell line Mia-Pa-Ca-2 by calculating the percentage growth inhibition, drug concentration of test compound needed to inhibit cell growth by 50% (GI50) values.
# [4] = test system: Human Lung Cancer Cell Line A-549; assay: Growth inhibition (% control growth, LC50, TGI, GI50) A-549; settings: A-549
# Experimental: The therapeutic effect of SA1 (peak 5) and SA2 (peak 4) is evaluated against human lung cancer cell line A-549 by calculating the percentage growth inhibition, drug concentration of test compound needed to inhibit cell growth by 50% (GI50) values.
# The therapeutic effect of SACC is evaluated against human lung cancer cell line A-549 by calculating the percentage growth inhibition, drug concentration of test compound needed to inhibit cell growth by 50% (GI50) values.
# lung cancer cell = assay: Cell viability MTT assay of SACC fractions on lung cells; settings: 24 h, read-out: inhibitory concentrations, lung cancer cell growth
# Experimental: The effect of SACC fractions (peak 2, peak 3, peak 4 and peak 5) on viability of lung cells was determined by MTT assay.
# Cells were seeded in 96 wells plate at a density of 1×10^4 per well in 200 μL of respective complete culture medium containing 10% FBS and 1% antibiotics. After 70% confluency, cells were treated with the respective doses (indicated in the graph) of SACC and its fraction in complete culture medium for 24 h. After incubation for a specified time at 37° C. in a humidified incubator, dye MTT (5 mg/mL in PBS; diluted in 10 mL of serum-free medium) was added to each well and incubated for 2 h, after which the plate was centrifuged at 1,000 rpm for 5 min at 4° C. After careful removal of the medium, 0.1 mL buffered DMSO was added to each well. The absorbance was recorded on a microplate reader at the wavelength of 540 nm. The effect SACC and its fraction on cell growth inhibition was assessed as percent cell viability, where vehicle-treated cells were taken as 100% viable.
structure (smiles),measurement,setting,value
"Cc1cc(=O)cco1 (single isomer, unassigned) [SA1 (peak 5), 2-methyl-4H-pyran-4-one]",% Control Growth,"[1]; 10^−4M, Average Values",35.0%
same,% Control Growth,"[1]; 10^−4M, Experiment 1",43.7%
same,% Control Growth,"[1]; 10^−4M, Experiment 2",27.1%
same,% Control Growth,"[1]; 10^−4M, Experiment 3",34.3%
same,% Control Growth,"[1]; 10^−5M, Average Values",58.6%
same,% Control Growth,"[1]; 10^−5M, Experiment 1",75.2%
same,% Control Growth,"[1]; 10^−5M, Experiment 2",44.0%
same,% Control Growth,"[1]; 10^−5M, Experiment 3",56.4%
same,% Control Growth,"[1]; 10^−6M, Average Values",75.4%
same,% Control Growth,"[1]; 10^−6M, Experiment 1",90.3%
same,% Control Growth,"[1]; 10^−6M, Experiment 2",69.9%
same,% Control Growth,"[1]; 10^−6M, Experiment 3",66.1%
same,% Control Growth,"[1]; 10^−7M, Average Values",60.8%
same,% Control Growth,"[1]; 10^−7M, Experiment 1",75.4%
same,% Control Growth,"[1]; 10^−7M, Experiment 2",50.9%
same,% Control Growth,"[1]; 10^−7M, Experiment 3",56.0%
same,TGI,[2],4.03 µg/mL
same,GI50,[3],0.00108 µg/mL
same,% Control Growth,"[3]; 10^−4M, Average Values",49.2%
same,% Control Growth,"[3]; 10^−4M, Experiment 1",30.0%
same,% Control Growth,"[3]; 10^−4M, Experiment 2",63.5%
same,% Control Growth,"[3]; 10^−4M, Experiment 3",54.2%
same,% Control Growth,"[3]; 10^−5M, Average Values",108.5%
same,% Control Growth,"[3]; 10^−5M, Experiment 1",97.0%
same,% Control Growth,"[3]; 10^−5M, Experiment 2",112.7%
same,% Control Growth,"[3]; 10^−5M, Experiment 3",115.9%
same,% Control Growth,"[3]; 10^−6M, Average Values",113.4%
same,% Control Growth,"[3]; 10^−6M, Experiment 1",111.0%
same,% Control Growth,"[3]; 10^−6M, Experiment 2",116.4%
same,% Control Growth,"[3]; 10^−6M, Experiment 3",112.6%
same,% Control Growth,"[3]; 10^−7M, Average Values",105.7%
same,% Control Growth,"[3]; 10^−7M, Experiment 1",108.1%
same,% Control Growth,"[3]; 10^−7M, Experiment 2",95.5%
same,% Control Growth,"[3]; 10^−7M, Experiment 3",113.5%
same,TGI,[3],0.7992 µg/mL
same,% Control Growth,"[4]; 10^−4M, Average Values",65.2%
same,% Control Growth,"[4]; 10^−4M, Experiment 1",64.0%
same,% Control Growth,"[4]; 10^−4M, Experiment 2",65.1%
same,% Control Growth,"[4]; 10^−4M, Experiment 3",66.6%
same,% Control Growth,"[4]; 10^−5M, Average Values",81.9%
same,% Control Growth,"[4]; 10^−5M, Experiment 1",86.4%
same,% Control Growth,"[4]; 10^−5M, Experiment 2",78.3%
same,% Control Growth,"[4]; 10^−5M, Experiment 3",81.1%
same,% Control Growth,"[4]; 10^−6M, Average Values",79.1%
same,% Control Growth,"[4]; 10^−6M, Experiment 1",83.6%
same,% Control Growth,"[4]; 10^−6M, Experiment 2",77.7%
same,% Control Growth,"[4]; 10^−6M, Experiment 3",75.9%
same,% Control Growth,"[4]; 10^−7M, Average Values",79.7%
same,% Control Growth,"[4]; 10^−7M, Experiment 1",80.8%
same,% Control Growth,"[4]; 10^−7M, Experiment 2",80.6%
same,% Control Growth,"[4]; 10^−7M, Experiment 3",77.6%
"Cc1ccc(O)oc1=O (single isomer, unassigned) [SA2 (peak 4), 6-hydroxy-3-methyl-2H-pyran-2-one]",IC50,lung cancer cell,1.02 µg/mL
same,% Control Growth,"[1]; 10^−4M, Average Values",27.9%
same,% Control Growth,"[1]; 10^−4M, Experiment 1",50.1%
same,% Control Growth,"[1]; 10^−4M, Experiment 2",18.1%
same,% Control Growth,"[1]; 10^−4M, Experiment 3",15.5%
same,% Control Growth,"[1]; 10^−5M, Average Values",47.2%
same,% Control Growth,"[1]; 10^−5M, Experiment 1",45.5%
same,% Control Growth,"[1]; 10^−5M, Experiment 2",42.0%
same,% Control Growth,"[1]; 10^−5M, Experiment 3",54.1%
same,% Control Growth,"[1]; 10^−6M, Average Values",62.8%
same,% Control Growth,"[1]; 10^−6M, Experiment 1",68.2%
same,% Control Growth,"[1]; 10^−6M, Experiment 2",59.7%
same,% Control Growth,"[1]; 10^−6M, Experiment 3",60.5%
same,% Control Growth,"[1]; 10^−7M, Average Values",57.0%
same,% Control Growth,"[1]; 10^−7M, Experiment 1",81.0%
same,% Control Growth,"[1]; 10^−7M, Experiment 2",42.6%
same,% Control Growth,"[1]; 10^−7M, Experiment 3",47.3%
same,GI50,"[1]; Homo sapiens, Molar drug concentrations calculated from graph",2.38 µg/mL
same,TGI,[2],0.1727 µg/mL
same,GI50,[3],0.000301 µg/mL
same,% Control Growth,"[3]; 10^−4M, Average Values",40.5%
same,% Control Growth,"[3]; 10^−4M, Experiment 1",40.0%
same,% Control Growth,"[3]; 10^−4M, Experiment 2",36.6%
same,% Control Growth,"[3]; 10^−4M, Experiment 3",45.0%
same,% Control Growth,"[3]; 10^−5M, Average Values",100.5%
same,% Control Growth,"[3]; 10^−5M, Experiment 1",76.9%
same,% Control Growth,"[3]; 10^−5M, Experiment 2",116.3%
same,% Control Growth,"[3]; 10^−5M, Experiment 3",108.3%
same,% Control Growth,"[3]; 10^−6M, Average Values",112.4%
same,% Control Growth,"[3]; 10^−6M, Experiment 1",114.3%
same,% Control Growth,"[3]; 10^−6M, Experiment 2",115.6%
same,% Control Growth,"[3]; 10^−6M, Experiment 3",107.5%
same,% Control Growth,"[3]; 10^−7M, Average Values",102.1%
same,% Control Growth,"[3]; 10^−7M, Experiment 1",95.4%
same,% Control Growth,"[3]; 10^−7M, Experiment 2",111.8%
same,% Control Growth,"[3]; 10^−7M, Experiment 3",99.0%
same,TGI,[3],0.1054 µg/mL
same,% Control Growth,"[4]; 10^−4M, Average Values",54.9%
same,% Control Growth,"[4]; 10^−4M, Experiment 1",54.4%
same,% Control Growth,"[4]; 10^−4M, Experiment 2",51.7%
same,% Control Growth,"[4]; 10^−4M, Experiment 3",58.6%
same,% Control Growth,"[4]; 10^−5M, Average Values",74.8%
same,% Control Growth,"[4]; 10^−5M, Experiment 1",81.5%
same,% Control Growth,"[4]; 10^−5M, Experiment 2",72.0%
same,% Control Growth,"[4]; 10^−5M, Experiment 3",70.9%
same,% Control Growth,"[4]; 10^−6M, Average Values",77.4%
same,% Control Growth,"[4]; 10^−6M, Experiment 1",74.0%
same,% Control Growth,"[4]; 10^−6M, Experiment 2",80.1%
same,% Control Growth,"[4]; 10^−6M, Experiment 3",78.2%
same,% Control Growth,"[4]; 10^−7M, Average Values",77.3%
same,% Control Growth,"[4]; 10^−7M, Experiment 1",80.0%
same,% Control Growth,"[4]; 10^−7M, Experiment 2",76.9%
same,% Control Growth,"[4]; 10^−7M, Experiment 3",74.9%
same,GI50,"[4]; Homo sapiens, A549, Molar drug concentrations calculated from graph",0.0034 µg/mL
"O=C1CC2=CC(O)=CC(=O)C2=CO1 (single isomer, unassigned) [peak 2, 6-hydroxy-3H-isochromene-3, 8(4H)-dione]",IC50,lung cancer cell,1.04 µg/mL
"Cc1ccc2[nH]cc(C(=O)O)c2c1 (single isomer, unassigned) [peak 3, 5-methyl-1H-indole-3-carboxylic acid]",IC50,lung cancer cell,1.06 µg/mL
